Laboratory results published in publication PMC4414309, “Target Modulation by a Kinase Inhibitor Engineered to Induce a Tandem Blockade of the Epidermal Growth Factor Receptor (EGFR) and c-Src: The Concept of Type III Combi-Targeting” (PLoS ONE, 2015).

Key:
MDA-MB-231 cells [1] = assay: Growth inhibition, SRB assay, MDA-MB-231; settings: Homo sapiens, MDA-MB-231, 120 h, read-out: IC50 growth inhibition MDA-MB-231
Experimental: (§1) Growth inhibition was measured in cells using the sulforhodamine B (SRB) assay [48]. […] The plates were subsequently rinsed with 1% acetic acid, and allowed to dry overnight. […] The results were analyzed using GraphPad Prism 6.0 (GraphPadSoftware, Inc., San Diego, CA) and the sigmoidal dose response curve was used to determine IC50 values. Each experiment was carried out at least four times, in triplicate.

MDA-MB-231 cells [2] = assay: Boyden chamber invasion assay, MDA-MB-231; assay type: cell-based, human; settings: MDA-MB-231, concentration as low as 0.1 μM, 24h
Experimental: The invasive property of MDA-MB-231 and 4T1 cells was determined using the Boyden-chamber invasion assay. Cells suspended in serum-free media were plated (120–150,000 cells/well) onto polycarbonate transwell inserts (8 μm pore size, BD Biosciences) coated with matrigel (6%) (BD Biosciences), separating the top and bottom chambers (50 μl/filter). […] The invasive property of cells was observed 24h after treatment by fixing cells in formalin and staining with 0.1% crystal violet (Sigma-Aldrich Canada Ltd). Cells attached on the upper surface of the insert (top chamber) were removed by gently scraping away with a cotton swab, whereas those that invaded onto the lower side of the insert were observed using a microscope (Leica DM IL inverted microscope, 10X). Images of five non-overlapping fields of invading cells were captured using the Leica DFC300FX camera and quantification was done using the Scion Image Analysis (3.53.0.0) software and ImageJ 1.46r software. The results were expressed in terms of percentage of invading cells relative to control and the bar graphs represent the average of three independent experiments.

[3] = system: NIH3T3-Her14 (EGFR transfected) cells; assay: Absorption and hydrolysis kinetics of AL776 in cells (HPLC); assay type: in vitro ADME, mouse
Experimental: NIH3T3-Her14 cells were seeded in 6-well plates (1 x 10^6 cells/well) and grown in DMEM with 10% FBS for 24 h. Cells were then treated with 25 μM of AL776 and incubated at 37°C for 1h, 2h, 6h, 24h or 48h. The media was collected and extracted using twice the volume of methanol, on ice and centrifuged for 20 min at 13,000 rpm at 4°C. The resulting supernatant was filtered, evaporated to dryness and reconstituted with 100 μL of methanol. Cells were collected using trypsin and the cell pellet obtained was rinsed once with PBS and lysed with methanol (500 μL /tube) on ice for 1h. The lysate was centrifuged at 13,000 rpm for 20 min at 4°C and the resulting supernatant was collected into a separate tube and the remaining pellet was subjected to lysis two more times (250 μL /tube). The supernatant from each lysis step were pooled all together, filtered, evaporated to dryness and resuspended in 100 μL of methanol before further analyzing the samples. HPLC analysis was performed using a ACE 5 C18 5 μm column (150 mmx4.6 mm) under elution conditions of gradient 70–75% methanol:water for the first 5 min and isocratic methanol elution until 30 min, using a 0.75 mL/min flow rate. Analyses were performed using a Thermoquest P4000 equipped with a UV2000 detector and an AS300 Autosampler.

4T1 cells = assay: Wound-healing assay, 4T1; assay type: cell-based, mouse; settings: 4T1, 0.1 μM, 24h drug exposure
Experimental: MDA-MB-231 and 4T1 cells were plated in 6-well plates (500,000 cells/well) and allowed to attach overnight (37°C, 5% CO2). The following day, media was removed and a cross scratch was made in the middle of the cell monolayer. […] The scratch was visualized at two different time points (0 and 24h) using the Leica DM IL inverted microscope (10X) and images were obtained using the Leica DFC300FX camera.

[4] = system: EGFR phosphorylation in 4T1 tumours; assay: Pharmacodynamics in 4T1 tumours, EGFR phosphorylation; settings: i.v., AL776 40 mg/kg, gefitinib + dasatinib 20 mg/kg each
Experimental: (§2) Mice were implanted with 4T1 mammary tumour cells, 15 million cells/flank (suspended in 200 μL PBS), subcutaneously.
(§3) Mice were sacrificed 1h or 24h after treatment and their tumours were collected and snap frozen at -80°C for further analysis using western blots. Tumours were crushed using a mortar/pestle chilled using liquid nitrogen and lysed with RIPA buffer diluted to a 1X concentration and supplemented with 1mM PMSF (Cell Signaling Technology, USA). Western blot analysis was carried out with the tumour samples, similar to the method described earlier.

[5] = system: NIH3T3-Her14 (EGFR transfected) cells; assay: Growth inhibition, SRB assay, NIH3T3-Her14
Experimental: as §1

[6] = system: c-Src phosphorylation in 4T1 tumours; assay: Pharmacodynamics in 4T1 tumours, c-Src phosphorylation; settings: i.v., AL776 40 mg/kg, gefitinib + dasatinib 20 mg/kg each
Experimental: as §2, §3

[7] = system: NIH3T3 wild type and EGFR transfected cells; assay: Apoptosis by annexin V/PI flow cytometry; assay type: cell-based, mouse; settings: 48h
Experimental: NIH3T3 cell lines (wild type and EGFR transfected) were plated in 6-well plates (500,000 cells/well) and allowed to grow overnight (37°C, 5% CO2). […] They were subsequently collected using trypsin (Wisent Inc., St-Bruno, Canada), centrifuged (2000 rpm, 5 min), rinsed with PBS and centrifuged again to obtain a cell pellet. The pellet was re-suspended in binding buffer (1X) and prior to being analyzed, annexin V-FITC and PI stains (eBioscience, San Diego, CA, USA) were added to the cells and incubated for 15 min in the dark at 4°C. Annexin V–FITC and PI binding were analyzed with a Becton Dickinson FACScan. Data were collected using logarithmic amplification of both the FL1 (FITC) and FL2 (PI) channels. Quadrant analysis of coordinate dot plots was done with CellQuestPro software. The experiment was carried out three times.

[8] = LC-MS analysis of AL776 hydrolysis in plasma in vivo; set-up: species or system CD-1 mice
Experimental: CD-1 mice were divided into groups of three and treated with 80 mg/kg of AL776, injected intraperitoneally (i.p) or intravenously (i.v). Mice were sacrificed and their plasma was collected for further analysis after 0, 5, 15 and 30 min after drug treatment. Plasma samples were extracted using twice the volume of methanol and lysed at 13,000 rpm for 30 min at 4°C. The resulting supernatant from each sample was collected, filtered and evaporated to dryness before reconstituting in 100 μL of methanol. LC-MS analyses were performed on a Synapt G2-S instrument coupled with an Acquity UPLC Class I system both from Waters. Elution rate was set at 500 μL/min using an Eclipse XDB C8, 3.5 um, 2.1 x 100 mm chromatographic column from Agilent Technologies. The experiments were performed with the following eluents: 0.1% aqueous formic acid (eluent A) and methanol (eluent B). The initial mobile phase was 30% B, which was maintained for 0.2 min at the beginning of the run. The following gradient elution was subsequently applied: 30 to 50% B from 0.2 to 4 min; 50 to 80% B from 4 to 10 min; held at 80% B from 10 to 11 min. Thereafter, eluent B was decreased to 30% in 0.2 min and held constant for up to 15 min to allow the column to equilibrate. Each sample was diluted with methanol in order to avoid detector saturation and […] aliquots of the resulting solutions were injected. Analyses were performed with the electrospray interface in positive ion mode and mass spectra acquired from m/z 100 to 1200. For accurate mass determination, Leucine Enkephalin was used as lock mass. The MassLynx software was used for instrument control, data acquisition and data processing.

Compound: Cc1nc(Nc2ncc(C(=O)Nc3c(C)cccc3Cl)s2)cc(N2CCN(CCOC(=O)CCC(=O)OCCN(C)Cc3ccc(C(=O)Nc4ccc5ncnc(Nc6cccc(Cl)c6)c5c4)cc3)CC2)n1 [AL776]
- IC50 (MDA-MB-231 cells [1]): 0.05 ± 0.004 µM
- Effect on invasion (MDA-MB-231 cells [2]): strongly inhibited invasion
- Detection of AL776 in cells and extracellular medium ([3]; 25 μM, 24–48h): detectable inside the cells but not in the extracellular medium
- Intact AL776 found in the cells ([3]; 24h): 50%
- Effect on wound-closure (4T1 cells): blocked wound-closure
- Inhibition of EGFR phosphorylation in tumours ([4]; 1h post-administration): strong blockade
- Inhibition of EGFR phosphorylation in tumours ([4]; 24 h post-treatment): reversed
- Rank of growth inhibitory potency among the binary targeting molecules ([5]; EGFR transfectant, S2 Fig.): most potent on the EGFR transfectant
- IC50 ([5]; Mus musculus, 120 h, read-out: IC50 growth inhibition NIH3T3 – Her14): 0.18 µM
- Growth inhibitory potency compared with gefitinib or dasatinib ([5]; NIH3T3-Her14 cells, 5 days): 2–4 fold
- Inhibition of c-Src phosphorylation in tumours ([6]; 1h post-administration): strong blockade
- Inhibition of c-Src phosphorylation in tumours ([6]; 24 h post-treatment): reversed
- Level of apoptosis (early + late) ([7]; 1μM dose): higher level of apoptosis than gefitinib or dasatinib
- Lowest concentration inducing apoptosis [7]: 1 µM
- Intact AL776 in plasma ([8]; 80 mg/kg i.p., early time points): no intact AL776 found in plasma
- Intact AL776 in plasma ([8]; 80 mg/kg i.v., 30 min post-administration): barely detectable levels
